On to `CC(C)c1ccccc1-n1c(=O)[nH]c2c(C(N)=O)nc(-c3ccc(-c4nc[nH]n4)cc3)nc21` [Compound 121, 2-(4-(1H-1,2,4-Triazol-3-yl)phenyl)-9-(2-isopropylphenyl)-8-oxo-8,9-dihydro-7H-purine-6-carboxamide], for which the melting point (in general, the temperature, or range, at which the solid turns liquid) stood at 368 °C.
The same measure for `NC(=O)c1nc(-c2cnc3nc[nH]c3c2)nc2c1[nH]c(=O)n2-c1ccccc1C(F)(F)F` [Compound 137, 2-(1H-Imidazo[4,5-b]pyridin-6-yl)-8-oxo-9-(2-(trifluoromethyl)phenyl)-8,9-dihydro-7H-purine-6-carboxamide]: 320 °C; for `COc1ccccc1-n1c(=O)[nH]c2c(C(N)=O)nc(-c3cccc(C(=O)O)c3)nc21` [Compound 62, 3-(6-Carbamoyl-9-(2-methoxyphenyl)-8-oxo-8,9-dihydro-7H-purin-2-yl)benzoic acid]: 348 to 350 °C; for `NC(=O)c1nc(-c2cnc3nc[nH]c3c2)nc2c1[nH]c(=O)n2C1CCCCC1` [Compound 150, 9-Cyclohexyl-2-(1H-imidazo[4,5-b]pyridin-6-yl)-8-oxo-8,9-dihydro-7H-purine-6-carboxamide]: 320 °C (dec.).
The figure for `NC(=O)c1nc(-c2ccc(O)nc2)nc2c1[nH]c(=O)n2-c1ccccc1C(F)(F)F` [Compound 100, 2-(6-Hydroxypyridin-3-yl)-8-oxo-9-(2-(trifluoromethyl)phenyl)-8,9-dihydro-7H-purine-6-carboxamide] is 348 to 352 °C (dec.); for `COC[C@H]1CC[C@@H](n2c(=O)[nH]c3c(C(N)=O)nc(-c4cccc(O)c4)nc32)CC1` [Compound 159, 2-(3-Hydroxyphenyl)-9-(cis-4-(methoxymethyl)cyclohexyl)-8-oxo-8,9-dihydro-7H-purine-6-carboxamide] it is 324 to 326 °C.
The figure for `COc1ccccc1-n1c(=O)[nH]c2c(C(N)=O)nc(NC[C@H]3CCCN3)nc21` [Compound 113, (R)-9-(2-Methoxyphenyl)-8-oxo-2-(pyrrolidin-2-ylmethylamino)-8,9-dihydro-7H-purine-6-carboxamide] is 155 to 157 °C; for `NC(=O)c1nc(-c2ccc(-c3nc[nH]n3)cc2)nc2c1[nH]c(=O)n2C1CCCCC1` [Compound 146, 2-(4-(1H-1,2,4-Triazol-3-yl)phenyl)-9-cyclohexyl-8-oxo-8,9-dihydro-7H-purine-6-carboxamide] it is 375 °C (dec.); for `COc1ccccc1-n1cnc2c(C(N)=O)nc(-c3ccccc3O)nc21` [Compound 70, 2-(2-Hydroxyphenyl)-9-(2-methoxyphenyl)purine-6-carboxamide] it is 278 to 280 °C.
Turning to `NC(=O)c1nc(-c2cccc(O)c2)nc2c1[nH]c(=O)n2[C@H]1CCOC1` [Compound 163, (S)-2-(3-Hydroxyphenyl)-8-oxo-9-(tetrahydrofuran-3-yl)-8,9-dihydro-7H-purine-6-carboxamide], the melting point was in the range of 354 to 356 °C.
The same measure for `COc1ccccc1-n1c(=O)[nH]c2c(C(N)=O)nc(-c3ccc(C#N)cc3)nc21` [Compound 59, 2-(4-Cyano-phenyl)-9-(2-methoxy-phenyl)-8-oxo-8,9-dihydro-7H-purine-6-carboxamide]: 335 to 338 °C; for `COc1ccccc1-n1c(=O)[nH]c2c(C(N)=O)nc(Nc3cccc(O)c3)nc21` [Compound 45, 2-(3-Hydroxyphenylamino)-9-(2-methoxyphenyl)-8-oxo-8,9-dihydro-7H-purine-6-carboxamide]: 190 to 191 °C; for `COc1ccccc1-n1c(=O)[nH]c2c(C(N)=O)nc(Nc3ccccc3O)nc21` [Compound 56, 2-(2-Hydroxyphenylamino)-9-(2-methoxyphenyl)-8-oxo-8,9-dihydro-7H-purine-6-carboxamide]: 314 to 315 °C.
The same measure for `NC(=O)c1nc(-c2cccc(O)c2)nc2c1[nH]c(=O)n2[C@@H]1CCOC1` [Compound 162, (R)-2-(3-Hydroxyphenyl)-8-oxo-9-(tetrahydrofuran-3-yl)-8,9-dihydro-7H-purine-6-carboxamide]: 353 to 355 °C; for `CC(C)Cn1c(=O)[nH]c2c(C(N)=O)nc(-c3cccc(O)c3)nc21` [Compound 142, 2-(3-Hydroxyphenyl)-9-isobutyl-8-oxo-8,9-dihydro-7H-purine-6-carboxamide]: 374 to 376 °C; for `COc1ccccc1-n1c(=O)[nH]c2c(C(N)=O)nc(NC[C@@H]3CCCN3)nc21` [Compound 114, (S)-9-(2-Methoxyphenyl)-8-oxo-2-(pyrrolidin-2-ylmethylamino)-8,9-dihydro-7H-purine-6-carboxamide]: 160 to 165 °C.
The figure for `COc1ccccc1-n1c(=O)[nH]c2c(C(N)=O)nc(N[C@H]3CC[C@H](O)CC3)nc21` [Compound 108, 2-(trans-4-Hydroxycyclohexylamino)-9-(2-methoxyphenyl)-8-oxo-8,9-dihydro-7H-purine-6-carboxamide] is 165 to 167 °C.
As for `NC(=O)c1nc(-c2cccc(O)c2)nc2c1[nH]c(=O)n2-c1ccccc1C1CCCCC1` [Compound 132, 9-(2-Cyclohexylphenyl)-2-(3-hydroxyphenyl)-8-oxo-8,9-dihydro-7H-purine-6-carboxamide], the melting point is more than 270 °C.
Compound `COc1ccccc1-n1cnc2c(C(N)=O)nc(Nc3cccc(O)c3)nc21` [Compound 51, 2-(3-Hydroxyphenylamino)-9-(2-methoxyphenyl)-9H-purine-6-carboxamide] registered a melting point of 155 to 157 °C.
The figure for `CO[C@H]1CC[C@H](n2c(=O)[nH]c3c(C(N)=O)nc(-c4cccc(O)c4)nc32)CC1` [Compound 143, 9-(trans-4-Methoxycyclohexyl)-2-(3-hydroxyphenyl)-8-oxo-8,9-dihydro-7H-purine-6-carboxamide] is 355 to 357 °C; for `COc1ccccc1-n1c(=O)[nH]c2c(C(N)=O)nc(-c3cnc4nc[nH]c4c3)nc21` [Compound 130, 2-(1H-Imidazo[4,5-b]pyridin-6-yl)-9-(2-methoxyphenyl)-8-oxo-8,9-dihydro-7H-purine-6-carboxamide] it is 358 °C (dec.); for `COc1ccc(-n2c(=O)[nH]c3c(C(N)=O)nc(-c4cccc(O)c4)nc32)c(C)c1` [Compound 57, 2-(3-Hydroxyphenyl)-9-(4-methoxy-2-methylphenyl)-8-oxo-8,9-dihydro-7H-purine-6-carboxamide] it is 355 to 357 °C.
The figure for `COc1ccccc1-n1c(=O)[nH]c2c(C(N)=O)nc(-c3ccc4nc[nH]c4c3)nc21` [Compound 91, 2-(1H-Benzo[d]imidazol-6-yl)-9-(2-methoxyphenyl)-8-oxo-8,9-dihydro-7H-purine-6-carboxamide] is 306 °C.
With `COc1ccccc1-n1c(=O)[nH]c2c(C(N)=O)nc(-c3ccc4[nH]c(SC)nc4c3)nc21` [Compound 138, 9-(2-Methoxyphenyl)-2-(2-(methylthio)-1H-benzo[d]imidazol-5-yl)-8-oxo-8,9-dihydro-7H-purine-6-carboxamide], the melting point is 244 to 245 °C.
The same measure for `NC(=O)c1nc(-c2cccc(O)c2)nc2c1[nH]c(=O)n2[C@H]1CC[C@H](O)CC1` [Compound 49, 9-(trans-4-Hydroxycyclohexyl)-2-(3-hydroxyphenyl)-8-oxo-8,9-dihydro-7H-purine-6-carboxamide]: 373 to 375 °C.

(Values after patent publication US7968556B2, “Heteroaryl compounds, compositions thereof, and methods of treatment therewith” (Signal Pharmaceuticals, LLC, priority 2006, dated 2011).)
